US20200398077A1, “SYSTEM AND METHOD TO ERADICATE A MAJORITY OF DISEASE-CAUSING GERMS AND PRODUCE AVIRULENT PHENOTYPE SURVIVORS SUSCEPTIBLE TO MICROBICIDES USING A LIGHT DOSE REGIMENT” (priority 2019, published 2020)

What was measured:
[1] = tested on: Depigmented Generation 2 avirulent phenotype survivors (MRSA G2); experiment: Kirby-Bauer zones of inhibition (ZOI) antibiotic susceptibility assay, depigmented survivor Generation 2; as to Susceptibility class (CLSI): key: R = resistant; S = susceptible; assay type: cell-based, S. aureus; conditions: for Susceptibility class (CLSI) / Zone diameter: Depigmented Generation 2 after light dose regiment, Kirby-Bauer ZOI; for Resistance/susceptibility in words (heatmap profile, FIG. 8): MRSA G2 (Generation 2), panel 124, after light dose regiment
Description: (§1) Table 7 below show and example of a Clinical laboratories Science Institute (CLSI) reference table typically used by clinicians and clinical microbiology laboratories to establish whether a clinical isolate is susceptible, intermediate or resistant to a particular type of antibiotic under the Kirby-Bauer ZOI assay:
(§2) In one example, the Kirby-bauer Zones of Inhibition (Z01) assay was performed on the untreated MRSA parent strain and the two generations of the depigmented avirulent phenotype survivors susceptible to microbicides were created by applying the light dose regiment of system 10 and the method thereof discussed above based on the CLSI guidelines, See Table 8 below:
(§3) The first generation (G1) is the avirulent phenotype survivors susceptible to microbicides created by system 10 and the method thereof and the second generation (G2) is the avirulent phenotype survivors susceptible to microbicides created by system 10 and the method thereof. In this example, the ZOI for Linezolid is indicated at 90, the ZOI for Norfloxacin is indicated at 92, the ZOI for Cefprozil is indicated at 94, ZOEs 96 and 98 are blank, ZOI 100 is for Rifampin, ZIO 102 is for Oxacillin and ZOI 104 is for Tetracycline. The growth control for Generation 1 (G1), Generation 2 (G2) and the wild type (WT) is indicated at 106, 108 and 110, respectively. In this example, Methicillin Resistant, S. aureus ATCC 33592. In this example, WT is Oxacillin is considered equivalent to methicillin when describing a MRSA strain. In this example, the ZOIs were measured at 24 hours and 72-hours past-challenge. Generation 1 was serially passaged onto an antibiotic-free TSA plate, then transferred to TSB liquid culture prior to performing the ZOI assay. Generation 2 was transferred from Generation 1, serially passaged onto an antibiotic-free TSA plate, then transferred to a TSB liquid culture prior to performing the ZOI assay. […] Thus, the avirulent phenotype survivors susceptible to microbicides are stable over multiple generations.
(§4) See e.g., Clinical and Laboratory Standards Institute, Performance Standards for Antimicrobial Susceptibility Testing, 29th Edition 950 West Valley Road Suite 2500, Wayne, Pa. 19087 USA, in this example Oxacillin is synonymous with methicillin when describing MRSA.

[2] = tested on: Depigmented Generation 1 avirulent phenotype survivors (MRSA G1); experiment: Kirby-Bauer zones of inhibition (ZOI) antibiotic susceptibility assay, depigmented survivor Generation 1; as to Susceptibility class (CLSI): key: R = resistant; S = susceptible; assay type: cell-based, S. aureus; conditions: for Susceptibility class (CLSI) / Zone diameter: Depigmented Generation 1 after light dose regiment, Kirby-Bauer ZOI; for Resistance/susceptibility in words (heatmap profile, FIG. 8): MRSA G1 (Generation 1), panel 122, after light dose regiment
Description: as §1, §2, §3, §4

[3] = tested on: S. aureus ATCC 33592 (MRSA) Parental Wild-Type; experiment: Kirby-Bauer zones of inhibition (ZOI) antibiotic susceptibility assay, untreated MRSA parent strain; as to Susceptibility class (CLSI): key: R = resistant; S = susceptible; assay type: cell-based; conditions: for Resistance/susceptibility in words (heatmap profile, FIG. 8): Parental Wild-Type, panel 120, CLSI M100-ED29:2019; for Susceptibility class (CLSI) / Zone diameter: S. aureus ATCC 33592 (MRSA), untreated parent, Kirby-Bauer ZOI
Description: as §1, §2, §3, §4

With `CC=CC1=C(C(=O)O)N2C(=O)[C@@H](NC(=O)[C@H](N)c3ccc(O)cc3)[C@H]2SC1` [Cefprozil] the “Susceptibility class (CLSI)” value [1] was “S”, the Zone diameter [1] was 42.98 mm and the “Resistance/susceptibility in words (heatmap profile, FIG. 8)” value (“Resistance/susceptibility in words” for short) [1] was “susceptible”. The “Susceptibility class (CLSI)” value [2] was “S”, the Zone diameter [2] was 42.99 mm and the “Resistance/susceptibility in words” value [2] was “susceptible”. For the same compound, the “Resistance/susceptibility in words” value [3] was “resistant”, the “Susceptibility class (CLSI)” value [3] was “R” and the Zone diameter [3] was “No Inhibition”.
In the case of `CC(=O)NC[C@H]1CN(c2ccc(N3CCOCC3)c(F)c2)C(=O)O1` [Linezolid], the “Susceptibility class (CLSI)” value [1] is reported as “S”, the Zone diameter [1] is reported as 32.8 mm and the “Susceptibility class (CLSI)” value [2] is reported as “S”. The Zone diameter [2] was 35.11 mm, the “Resistance/susceptibility in words” value [3] was “susceptible” and the “Susceptibility class (CLSI)” value [3] was “S”. For the same compound, the Zone diameter [3] was 31.33 mm.
`CCn1cc(C(=O)O)c(=O)c2cc(F)c(N3CCNCC3)cc21` [Norfloxacin] was tested, and the “Susceptibility class (CLSI)” value [1] was “S”, the Zone diameter [1] was 30.17 mm and the “Susceptibility class (CLSI)” value [2] was “S”. The Zone diameter [2] was 32.68 mm, the “Resistance/susceptibility in words” value [3] was “susceptible” and the “Susceptibility class (CLSI)” value [3] was “S”. It also gave a Zone diameter [3] of 27.67 mm.
With `Cc1onc(-c2ccccc2)c1C(=O)N[C@@H]1C(=O)N2[C@@H]1SC(C)(C)[C@@H]2C(=O)O` [Oxacillin] the “Susceptibility class (CLSI)” value [1] was “S”, the Zone diameter [1] was 27.25 mm and the “Resistance/susceptibility in words” value [1] was “susceptible”. For the same compound, the “Susceptibility class (CLSI)” value [2] was “S”, the Zone diameter [2] was 28.04 mm and the “Resistance/susceptibility in words” value [2] was “susceptible”. The “Resistance/susceptibility in words” value [3] was “resistant”, the “Susceptibility class (CLSI)” value [3] was “R” and the Zone diameter [3] was “No Inhibition”.
With `CO[C@H]1/C=C/O[C@@]2(C)Oc3c(C)c(O)c4c(O)c(c(/C=N/N5CCN(C)CC5)c(O)c4c3C2=O)NC(=O)/C(C)=C\C=C\[C@H](C)[C@H](O)[C@@H](C)[C@@H](O)[C@@H](C)[C@H](OC(C)=O)[C@@H]1C` [Rifampin] the “Susceptibility class (CLSI)” value [1] was “S”, the Zone diameter [1] was 48.68 mm and the “Resistance/susceptibility in words” value [1] was “susceptible”. For the same compound, the “Susceptibility class (CLSI)” value [2] was “S”, the Zone diameter [2] was 45.04 mm and the “Resistance/susceptibility in words” value [2] was “susceptible”. The “Resistance/susceptibility in words” value [3] was “resistant”, the “Susceptibility class (CLSI)” value [3] was “R” and the Zone diameter [3] was “No Inhibition”.
In the case of `CN(C)[C@@H]1C(O)=C(C(N)=O)C(=O)[C@@]2(O)C(O)=C3C(=O)c4c(O)cccc4[C@@](C)(O)[C@H]3C[C@@H]12` [Tetracycline], the “Susceptibility class (CLSI)” value [1] is reported as “S”, the Zone diameter [1] is reported as 31.31 mm and the “Susceptibility class (CLSI)” value [2] is reported as “S”. The Zone diameter [2] was 34.66 mm and the “Susceptibility class (CLSI)” value [3] was “R”.
